Experiments:
[1] = target: T1, receptors D4.4 (Homo sapiens, UniProt P21917); test: Radioligand binding assay, dopaminergic D4 (D4.4) receptors; details: test compound 1×10^−6 M
T1 sequence (P21917 1-419): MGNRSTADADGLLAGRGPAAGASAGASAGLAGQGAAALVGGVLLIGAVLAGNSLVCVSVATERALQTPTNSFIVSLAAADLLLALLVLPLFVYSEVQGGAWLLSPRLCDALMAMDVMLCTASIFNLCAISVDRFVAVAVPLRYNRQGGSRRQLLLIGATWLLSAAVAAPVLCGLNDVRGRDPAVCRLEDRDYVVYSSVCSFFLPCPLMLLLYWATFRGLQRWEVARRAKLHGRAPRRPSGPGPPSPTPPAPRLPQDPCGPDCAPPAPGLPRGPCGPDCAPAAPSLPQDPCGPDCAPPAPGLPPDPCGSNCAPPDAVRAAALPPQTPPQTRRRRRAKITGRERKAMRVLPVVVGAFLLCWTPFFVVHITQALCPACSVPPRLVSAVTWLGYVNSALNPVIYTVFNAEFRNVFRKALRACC
Description: (§1) The specific ligand binding to the receptors is defined as the difference between the total binding and the non-specific binding determined in the presence of the excess of unlabelled ligand.
(§2) The results are expressed as a percent of control specific binding ((measured specific binding/control specific binding)×100) and as a percent inhibition of control specific binding (100−((measured specific binding/control specific binding)×100)) obtained in the presence of the test compounds. The specific ligand binding to the receptors is defined as the difference between the total binding and the nonspecific binding determined in the presence of an excess of unlabelled ligand. Scintillation counting was the method of detection of ligand binding. The IC50 values (concentration causing a half-maximal inhibition of control specific binding) were determined by non-linear regression analysis of the competition curves generated with mean replicate values using Hill equation curve fitting (Y=D+[(A−D)/(1+(C/C50)nH)], where Y=specific binding, D=minimum specific binding, A=maximum specific binding, C=compound concentration, C50=IC50, and nH=slope factor). This analysis was performed using a software developed at Cerep (Hill software) and validated by comparison with data generated by the commercial software SigmaPlot® 4.0 for Windows® (© 1997 by SPSS Inc.). The inhibition constants (Ki) were calculated using the Cheng Prusoff equation (Ki=IC50/(1+(L/KD)), where L=concentration of radioligand in the assay, and KD=affinity of the radioligand for the receptor). A scatchard plot was used to determine the Kd.
Experimental conditions for tests are given in Table 1, the results of tests for representative compounds are given in Tables 2a and 2b (receptors D2 and D3) and in Table 3 (receptors D4).

[2] = target: T2, 5-HT6 receptor (Homo sapiens, UniProt P50406); test: Radioligand binding assay, serotoninergic 5-HT6 receptors; details: for inhibition at 1 µM / 5-HT6 [%]: binding assay result in %, Table 5a; for Ki: read-out: Inhibition constants Ki, 5-HT6
T2 construct: purchased PerkinElmer
T2 sequence (P50406 whole entry): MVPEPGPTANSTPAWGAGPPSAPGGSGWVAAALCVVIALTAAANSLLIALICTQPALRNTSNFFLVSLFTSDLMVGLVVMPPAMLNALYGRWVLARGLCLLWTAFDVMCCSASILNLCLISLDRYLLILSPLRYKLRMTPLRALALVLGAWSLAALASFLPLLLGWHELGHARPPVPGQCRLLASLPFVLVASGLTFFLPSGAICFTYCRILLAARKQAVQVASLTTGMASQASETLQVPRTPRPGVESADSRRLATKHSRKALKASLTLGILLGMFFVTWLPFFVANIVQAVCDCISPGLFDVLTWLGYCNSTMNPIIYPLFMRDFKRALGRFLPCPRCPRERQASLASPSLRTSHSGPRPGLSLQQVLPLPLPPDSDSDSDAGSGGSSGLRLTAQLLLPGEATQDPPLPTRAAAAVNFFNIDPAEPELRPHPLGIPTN
Method in brief: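 Values are Ki from Cheng–Prusoff, taking IC50 from Hill nonlinear regression of competition curves and KD from a Scatchard plot. Specific binding was total minus binding with excess unlabelled ligand. Radioligand displacement was detected by scintillation counting, and data were also reported as percent of control specific binding.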

[3] = target: T3, 5-HT7 receptor (Homo sapiens, UniProt P34969); test: Radioligand binding assay, serotoninergic 5-HT7 receptors; details: binding assay result in %, Table 5a
T3 construct: purchased PerkinElmer
T3 sequence (P34969 whole entry): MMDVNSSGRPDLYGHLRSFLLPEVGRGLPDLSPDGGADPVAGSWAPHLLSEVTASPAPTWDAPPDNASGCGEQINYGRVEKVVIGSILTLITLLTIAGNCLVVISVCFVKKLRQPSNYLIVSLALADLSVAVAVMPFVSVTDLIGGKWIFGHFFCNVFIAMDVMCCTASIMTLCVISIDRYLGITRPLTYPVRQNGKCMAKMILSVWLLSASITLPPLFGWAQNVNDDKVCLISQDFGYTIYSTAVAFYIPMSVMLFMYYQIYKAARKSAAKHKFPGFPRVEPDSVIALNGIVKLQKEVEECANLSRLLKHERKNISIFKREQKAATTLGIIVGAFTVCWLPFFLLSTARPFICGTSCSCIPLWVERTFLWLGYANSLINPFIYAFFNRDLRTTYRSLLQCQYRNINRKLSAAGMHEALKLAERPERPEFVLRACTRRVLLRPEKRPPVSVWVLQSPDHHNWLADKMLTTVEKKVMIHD
Method in brief: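 Competition binding at human 5-HT7 receptors with a radioligand, detected by scintillation counting; non-specific binding was defined with excess unlabelled ligand. IC50 came from Hill-equation fits of competition curves, and Ki from Cheng–Prusoff using radioligand concentration and Scatchard-derived KD.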

[4] = target: T4, α2C adrenergic receptors (Homo sapiens, UniProt P18825); test: Radioligand binding assay, adrenergic α2C receptors; details: test compound 1×10^−6 M
T4 construct: expressed in transfected cells; host or cells: CHO cells
T4 sequence (P18825 1-462): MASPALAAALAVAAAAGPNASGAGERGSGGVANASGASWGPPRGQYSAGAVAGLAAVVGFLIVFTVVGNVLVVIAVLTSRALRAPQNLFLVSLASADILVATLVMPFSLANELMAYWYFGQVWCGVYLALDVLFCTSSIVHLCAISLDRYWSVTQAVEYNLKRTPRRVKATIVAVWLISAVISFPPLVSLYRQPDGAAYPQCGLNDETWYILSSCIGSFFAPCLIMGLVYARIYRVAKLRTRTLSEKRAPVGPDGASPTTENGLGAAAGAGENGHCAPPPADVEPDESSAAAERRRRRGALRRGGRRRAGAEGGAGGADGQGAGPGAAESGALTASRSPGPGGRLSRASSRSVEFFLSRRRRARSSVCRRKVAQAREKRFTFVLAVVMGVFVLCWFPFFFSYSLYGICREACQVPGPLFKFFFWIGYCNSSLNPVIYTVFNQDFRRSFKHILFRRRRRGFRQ
Description: as §1, §2
Experimental conditions for tests are given in Table 7, and results of tests for representative compounds are given in Tables 8 (α1 receptors) and in Tables 9 (α2C receptors).

[5] = target: T5, serotonin transporter (SERT) (Homo sapiens, UniProt P31645); test: Radioligand binding assay, serotonin transporter (SERT); details: for inhibition at 1 µM / SERT [%]: binding assay, test compound 1×10^−6 M; for Ki: read-out: Inhibition constants Ki for SERT, SERT
T5 construct: expressed in transfected cells; host or cells: CHO cells
T5 sequence (P31645 whole entry): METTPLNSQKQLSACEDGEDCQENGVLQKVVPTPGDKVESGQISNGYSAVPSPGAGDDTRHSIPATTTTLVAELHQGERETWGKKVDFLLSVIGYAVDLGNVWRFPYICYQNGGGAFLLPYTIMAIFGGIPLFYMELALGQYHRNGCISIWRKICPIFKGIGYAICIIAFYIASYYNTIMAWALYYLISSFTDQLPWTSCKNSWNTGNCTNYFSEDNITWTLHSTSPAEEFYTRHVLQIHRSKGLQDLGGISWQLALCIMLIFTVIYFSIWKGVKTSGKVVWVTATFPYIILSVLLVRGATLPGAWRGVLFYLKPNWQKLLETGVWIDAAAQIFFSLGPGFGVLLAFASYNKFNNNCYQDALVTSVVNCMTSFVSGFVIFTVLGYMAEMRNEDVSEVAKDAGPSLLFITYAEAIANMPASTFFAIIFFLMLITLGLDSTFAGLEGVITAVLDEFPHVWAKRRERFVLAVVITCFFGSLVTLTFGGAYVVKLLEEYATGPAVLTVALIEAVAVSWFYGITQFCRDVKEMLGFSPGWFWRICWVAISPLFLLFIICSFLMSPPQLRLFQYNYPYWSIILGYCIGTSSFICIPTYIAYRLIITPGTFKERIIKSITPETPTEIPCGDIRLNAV
Method in brief: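 Radioligand competition binding with scintillation detection; specific binding is total minus binding under excess unlabelled ligand. Reported as % of control specific binding or % inhibition; IC50 from Hill-equation non-linear regression of competition curves, and Ki via Cheng-Prusoff using radioligand concentration and Scatchard-derived KD.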

SMILES	inhibition at 1 µM [1] [%]	inhibition at 1 µM [2] [%]	inhibition at 1 µM [3] [%]	inhibition at 1 µM [4] [%]	inhibition at 1 µM [5] [%]	Ki [2] [nM]	D4.4 [%] [1] [%]	5-HT6 [%] [2] [%]	5-HT7 [%] [3] [%]	α2C [%] [4] [%]	SERT [%] [5] [%]	Ki [5] [nM]
O=S(=O)(NCC1CCN(CCOc2cccc3c2OCCO3)C1)c1ccc2c(c1)CCO2 (stereo not drawn) [Compound 306, N-[[1-[2-(2,3-Dihydro-1,4-benzodioxin-5-yloxy)ethyl]pyrrolidin-3-yl]-methyl]-2,3-dihydrobenzofuran-5-sulphonamide]	33	45	94	98	90	–	–	–	–	–	–	–
Cc1ccc2sc(S(=O)(=O)N[C@H]3CCN(CCCc4noc5cc(F)ccc45)C3)cc2c1 [Compound 229, N-[(3S)-1-[3-(6-Fluoro-1,2-benzoxazol-3-yl)propyl]pyrrolidin-3-yl]-5-methylbenzothiophene-2-sulphonamide]	86	98	99	98	50	43	–	–	–	–	–	–
O=S(=O)(NC1CCN(CCOc2cccc3[nH]ccc23)CC1)c1ccccc1 [Compound 55, N-[1-[2-(1H-Indol-4-yloxy)ethyl]-4-piperidine]benzenesulphonamide]	–	–	–	–	–	–	31	3	96	99	6	–
O=S(=O)(NCC1CCN(CCOc2cccc3c2OCCO3)C1)c1cccc(O)c1 (stereo not drawn) [Compound 303, N-[[1-[2-(2,3-Dihydro-1,4-benzodioxin-5-yloxy)ethyl]pyrrolidin-3-yl]-methyl]-3-hydroxy-benzenesulphonamide]	39	48	98	100	73	–	–	–	–	–	–	–
O=S(=O)(NCC1CCN(CCOc2cccc3c2OCCO3)C1)c1ccc(Br)cc1 (stereo not drawn) [Compound 305, 4-Bromo-N-[[1-[2-(2,3-dihydro-1,4-benzodioxin-5-yloxy)ethyl]pyrrolidin-3-yl]methyl]benzenesulphonamide]	52	52	96	96	94	–	–	–	–	–	–	–
Cc1cc(S(=O)(=O)NCC2CCN(CCOc3cccc4c3OCCO4)C2)c(C)s1 (stereo not drawn) [Compound 312, N-[[1-[2-(2,3-Dihydro-1,4-benzodioxin-5-yloxy)ethyl]pyrrolidin-3-yl]methyl]-2,5-dimethylthiophene-3-sulphonamide]	52	19	86	94	87	–	–	–	–	–	–	–
Cn1ccc2cc(S(=O)(=O)NC3CCN(CCCc4noc5cc(F)ccc45)C3)ccc21 (stereo not drawn) [Compound 218, N-[1-[3-(6-Fluoro-1,2-benzoxazol-3-yl)propyl]pyrrolidin-3-yl]-1-methyl-indole-5-sulphonamide]	86	95	98	94	95	–	–	–	–	–	–	–
O=S(=O)(NCC1CCN(CCOc2cccc3c2OCCO3)C1)c1ccc(F)c(Cl)c1 (stereo not drawn) [Compound 317, 3-Chloro-N-[[1-[2-(2,3-dihydro-1,4-benzodioxin-5-yloxy)ethyl]pyrrolidin-3-yl]methyl]-4-fluorobenzenesulphonamide]	59	76	95	95	63	–	–	–	–	–	–	–
O=S(=O)(N[C@H]1CCN(CCCc2noc3cc(F)ccc23)C1)c1ccc2cc(Cl)ccc2c1 [Compound 201, 6-Chloro-N-[(3S)-1-[3-(6-fluoro-1,2-benzoxazol-3-yl)propyl]pyrrolidin-3-yl]naphthalene-2-sulphonamide]	50	94	95	89	59	79	–	–	–	–	–	–
O=S(=O)(NC1CCN(CCCc2noc3cc(F)ccc23)C1)c1ccc(Cl)c(F)c1 (stereo not drawn) [Compound 11, 4-Chloro-3-fluoro-N-[1-[3-(6-fluoro-1,2-benzoxazol-3-yl)propyl]-pyrrolidin-3-yl]benzene-sulphonamide]	92	94	97	71	-6	–	–	–	–	–	–	–
O=S(=O)(NC1CCN(CCCc2c[nH]c3ccc(F)cc23)C1)c1ccc(F)cc1 (stereo not drawn) [Compound 75, 4-Fluoro-N-[1-[3-(5-fluoro-1H-indol-3-yl)propyl]pyrrolidin-3-yl]benzene-sulphonamide]	76	94	90	76	103	34	–	–	–	–	–	1.5
O=S(=O)(NC1CCN(CCCc2c[nH]c3ccc(Cl)cc23)C1)c1cccc(Cl)c1 (stereo not drawn) [Compound 84, 3-Chloro-N-[1-[3-(5-chloro-1H-indol-3-yl)propyl]pyrrolidin-3-yl]benzenesulphonamide]	94	96	98	105	104	18	–	–	–	–	–	2.6
O=S(=O)(NCC1CN(CCCc2noc3cc(F)ccc23)C1)c1cc2ccccc2s1 [Compound 127, N-[[1-[3-(6-Fluoro-1,2-benzoxazol-3-yl)propyl]azetidin-3-yl]methyl]benzo-thiophene-2-sulphonamide]	55	–	–	93	–	18	–	96	96	–	49	–
Cc1cccc(S(=O)(=O)NC2CN(CCOc3cccc4[nH]ccc34)C2)c1 [Compound 48, N-[1-[2-(1H-Indol-4-yloxy)ethyl]azetidin-3-yl]-3-methyl-benzenesulphonamide]	80	17	98	105	-3	–	–	–	–	–	–	–
O=S(=O)(NCC1CCN(CCOc2cccc3c2OCCO3)C1)c1ccc(F)cc1 (stereo not drawn) [Compound 300, N-[[1-[2-(2,3-Dihydro-1,4-benzodioxin-5-yloxy)ethyl]pyrrolidin-3-yl]-methyl]-4-fluoro-benzenesulphonamide]	52	38	90	92	64	–	–	–	–	–	–	–
O=S(=O)(NCC1CCN(CCOc2cccc3c2OCCO3)C1)c1cccc(F)c1 (stereo not drawn) [Compound 298, N-[[1-[2-(2,3-Dihydro-1,4-benzodioxin-5-yloxy)ethyl]pyrrolidin-3-yl]-methyl]-3-fluoro-benzenesulphonamide]	48	40	93	94	72	–	–	–	–	–	–	–
